# ChEMBL document CHEMBL1147466 (Bioorg Med Chem Lett, 2004)
# Tests used:
# [1] = molecular target: T1, Lysophosphatidic acid receptor 1 (Homo sapiens, UniProt Q92633); experiment: Agonistic activity against lysophosphatidic acid receptor 1 using [35S]GTP-gamma-S as radioligand tested in vitro; type: functional
# [2] = molecular target: T1, Lysophosphatidic acid receptor 1; experiment: Maximal efficacy to that of maximal efficacy of LPA against lysophosphatidic acid receptor 1 was determined in vitro
# [3] = molecular target: T2, Lysophosphatidic acid receptor 2 (Homo sapiens, UniProt Q9HBW0); experiment: Maximal efficacy to that of maximal efficacy of LPA against lysophosphatidic acid receptor 2 was determined in vitro
# T2 sequence (Q9HBW0 whole entry): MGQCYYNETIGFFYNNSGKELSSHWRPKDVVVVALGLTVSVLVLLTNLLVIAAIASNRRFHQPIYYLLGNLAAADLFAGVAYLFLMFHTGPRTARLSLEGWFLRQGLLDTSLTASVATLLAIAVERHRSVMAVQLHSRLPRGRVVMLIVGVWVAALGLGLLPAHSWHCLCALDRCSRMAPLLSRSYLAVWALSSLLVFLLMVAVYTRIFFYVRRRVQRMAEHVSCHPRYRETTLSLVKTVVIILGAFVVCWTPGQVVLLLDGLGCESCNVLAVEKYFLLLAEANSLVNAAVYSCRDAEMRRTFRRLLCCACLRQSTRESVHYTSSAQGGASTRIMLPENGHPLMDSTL
# [4] = molecular target: T3, Lysophosphatidic acid receptor 3 (Homo sapiens) (UniProt Q9UBY5); experiment: Maximal efficacy to that of maximal efficacy of LPA against lysophosphatidic acid receptor 3 was determined in vitro
# T3 sequence (whole entry): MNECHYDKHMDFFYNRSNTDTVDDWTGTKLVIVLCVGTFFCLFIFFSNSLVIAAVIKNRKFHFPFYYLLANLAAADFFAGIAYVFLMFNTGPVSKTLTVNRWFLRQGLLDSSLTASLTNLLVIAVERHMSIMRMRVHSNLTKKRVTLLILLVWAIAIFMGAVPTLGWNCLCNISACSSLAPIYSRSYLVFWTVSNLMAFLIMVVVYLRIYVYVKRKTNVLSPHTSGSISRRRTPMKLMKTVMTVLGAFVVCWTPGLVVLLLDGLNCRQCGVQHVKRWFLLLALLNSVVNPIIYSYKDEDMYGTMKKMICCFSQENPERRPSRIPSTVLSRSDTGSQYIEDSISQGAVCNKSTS
# [5] = molecular target: T2, Lysophosphatidic acid receptor 2; experiment: Agonistic activity against lysophosphatidic acid receptor 2 using [35S]GTP-gamma-S as radioligand tested in vitro; type: functional
# [6] = molecular target: T4, Lysophosphatidic acid receptor 3 (Homo sapiens, UniProt Q9UBY5); experiment: Agonistic activity against lysophosphatidic acid receptor 3 using [35S]GTP-gamma-S as radioligand tested in vitro; type: functional
# T4 sequence (Q9UBY5 whole entry): T3 sequence (whole entry)
# [7] = molecular target: T1, Lysophosphatidic acid receptor 1; experiment: Agonistic activity against lysophosphatidic acid receptor 1 receptor using [35S]GTP-gamma-S as radioligand tested in vitro; type: functional
# T1 sequence (Q92633 whole entry): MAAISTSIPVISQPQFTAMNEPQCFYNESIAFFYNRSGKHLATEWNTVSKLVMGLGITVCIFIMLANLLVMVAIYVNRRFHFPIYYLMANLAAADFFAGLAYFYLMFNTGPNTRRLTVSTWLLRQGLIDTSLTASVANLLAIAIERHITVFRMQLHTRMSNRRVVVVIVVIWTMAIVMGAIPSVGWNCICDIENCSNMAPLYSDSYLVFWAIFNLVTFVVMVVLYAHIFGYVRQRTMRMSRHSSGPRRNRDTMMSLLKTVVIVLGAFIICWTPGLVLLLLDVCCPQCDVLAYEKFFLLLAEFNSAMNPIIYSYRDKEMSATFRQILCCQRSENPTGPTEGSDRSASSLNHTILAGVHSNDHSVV
Compound,EC50 [1],Emax [2],Emax [3],Emax [4],EC50 [5],EC50 [6],EC50 [7]
CCCCCCCC/C=C\CCCCCCCC(=O)NCCC(=O)P(O)(O)=S,40 nM,80%,46%,–,108 nM,> 5000 nM,–
CCCCCCCC/C=C\CCCCCCCC(=O)NCCC(O)(P(=O)(O)O)P(=O)(O)O,> 5000 nM,–,–,–,> 5000 nM,> 5000 nM,–
CCCCCCCC/C=C\CCCCCCCC(=O)NCCC(F)P(=O)(O)O (stereo unspecified),> 5000 nM,–,100%,–,1960 nM,> 5000 nM,–
CCCCCCCC/C=C\CCCCCCCC(=O)NCCCP(=O)(O)O,1950 nM,50%,–,–,> 5000 nM,> 5000 nM,–
CCCCCCCC/C=C\CCCCCCCC(=O)NCCC(=S)P(=O)(O)O,318 nM,50%,–,–,> 5000 nM,> 5000 nM,–

# Further lines, results first:
EC50 [1],Emax [2],Emax [3],Emax [4],EC50 [5],EC50 [6],EC50 [7],Compound
17 nM,100%,100%,100%,–,–,–,CCCCCCCC/C=C\CCCCCCCC(=O)OC[C@@H](O)COP(=O)(O)O [LYSOPHOSPHATIDIC ACID]
–,80%,90%,–,2070 nM,> 5000 nM,1230 nM,CCCCCCCC/C=C\CCCCCCCC(=O)NCCC(O)P(=O)(O)O (stereo unspecified)
221 nM,80%,90%,–,1090 nM,> 5000 nM,–,CCCCCCCC/C=C\CCCCCCCC(=O)NCCC(=O)P(=O)(O)O
–,100%,110%,–,–,–,–,CCCCCCCC/C=C\CCCCCCCC(=O)NCCOP(=O)(O)O
